“Also recorded” adds a separate entry of the source.
What was measured:
mouse primary podocytes = assay: CRELD2 expression in mouse primary podocytes treated with ER stress inducers (WB, immunofluorescence); assay type: cell-based; conditions: for CRELD2 immunofluorescence in podocytes: TM 2 μg/ml or TG 1 μM for 24 h, overlapped with BiP; for CRELD2 expression in cell lysates (WB): TM 2 μg/ml or TG 1 μM for 24 h vs DMSO vehicle
Method: FIG. 9A is an image of a Western blot showing mouse primary podocytes were treated with DMSO (control), tunicamycin (TM) (2 μg/ml) or thapsigargin (TG) (1 μM) for 24 h. Cell lysates were analyzed by WB with the indicated antibodies. TM and TG are ER stress inducers.
FIG. 9B is a series of images showing control and TM- or TG-treated mouse podocytes, as described in FIG. 9A stained for CRELD2 (red) and BiP (green). Nuclei were counterstained with Hoechst 33342 (blue). Scale bar, 40 μm.
CRELD2 is a urinary biomarker for detecting podocyte ER stress in the early stages of podocyte ER stress-induced nephrotic syndrome (NS) in mice. Initial experiments (see e.g., Example 2) determined ER stress increases CRELD2 expression and secretion in mouse primary podocytes. Mouse podocytes were treated for 24 h with tunicamycin (TM), which activates ER stress by blocking N-linked glycosylation in the ER (26), or TG, which depletes ER calcium through inhibition of ER calcium ATPase (27). […] The effects of ER stress on CRELD2 secretion were also examined.
Isolated glomeruli from Lamb2^+/−, Lamb2^−/−; Tg-C321R and Lamb2^−/−; Tg-WT mice at P27 were suspended in DMEM/Ham's F-12 (2:1) that contained 0.45 μm-filtered 3T3-L1 supernatant, 5% heat inactivated FBS, ITS (Insulin-Transferrin-Sodium Selenite) liquid media supplement, and 100 U/ml penicillin-streptomycin; plated onto collagen type I-coated petri dishes; and incubated at 37° C. in room air with 5% CO2. After 3 days, cell colonies began to sprout around the glomeruli. […] Only passages 1-2 podocytes from the indicated genotypes were used in the in vitro studies.
For immunocytochemistry, mouse primary podocytes were seeded on cover slips coated with 5 μg/ml rat collagen I that was dissolved in 0.02M acetic acid in 24 well plates for 48 hours. After 24 hours treatment with DMSO, TM or TG, the cells were fixed with 4% PFA for 20 minutes and permeabilized with 1% Triton X-100 for 5 minutes at room temperature, blocked with 1% BSA for 30 minutes at room temperature, followed by incubation with goat anti-mouse CRELD2 (R&D) and rabbit anti-mouse BiP antibodies for an additional 1 hour at room temperature. The cover slips were washed with PBS and incubated with the corresponding Alexa 594- or Alexa 488-conjugated secondary antibodies and Hoechst 33342 to stain nuclei. The cover slips were then mounted with anti-quench solution and visualized using a fluorescence microscope (Nikon).
Isolated mouse glomeruli and cultured mouse primary podocytes were lysed by RIPA buffer (Sigma) containing protease inhibitor cocktail (Roche, Indianapolis, Ind.). TM untreated- and treated-kidneys, as well as sham-operated and I/R-injured kidneys, were extracted using the same lysis buffer with the protease inhibitors and homogenized by sonication. The protein concentrations of cell, glomerular and kidney lysates were determined by Bio-Rad protein assay (Hercules, Calif.) using BSA as a standard. Denatured proteins were separated on SDS polyacrylamide gel electrophoresis (SDS-PAGE) and then transferred to PVDF membranes. Blots were blocked with 5% non-fat milk for 1 hour and then incubated overnight with primary antibodies. The membranes were washed with Tris-buffered saline/TWEEN® (polysorbate) buffer and incubated with the appropriate HRP-conjugated secondary antibodies. […] Relative intensities of protein bands were quantified using ImageJ (NIH) analysis software.

C57BL/6J mice [1] = conditions: cited from earlier work
C57BL/6J mice [2] = assay: TM-induced AKI mouse model (kidney and urine CRELD2/BiP, histology); assay type: in vivo; conditions: for BiP in ER stressed-tubular cells (immunofluorescence): 1 day and 5 days post TM injection (FIG. 19); for urinary CRELD2 excretion (WB): urine within 24 hours after TM 1 mg/kg IP vs vehicle; for BiP in urine (immunodetection): within 24 hr from TM injection, no obvious histological changes of kidney injury (FIG. 20)
Method: FIG. 10A is a bar graph showing quantitative RT-PCR analysis of relative transcript levels of CRELD2 in kidneys at the indicated time points following TM injection (1 mg/kg, IP) as compared to DMSO vehicle-injected controls. Absolute levels were normalized first to those of GAPDH and then to the levels in the control kidneys (mean±SD). **P<0.01 and ***P<0.001 by ANOVA (n=3 mice per group).
FIG. 10B is a series of images showing dual IF staining for CRELD2 (green) and LTL (red) on paraformaldehyde-fixed, sucrose-cryoprotected kidney sections from mice treated with vehicle or TM (1 mg/kg) at the indicated time points. Nuclei were counterstained with Hoechst 33342 (blue). G: glomerulus. Scale bars, 40 μm.
FIG. 10C is a Western blot showing whole-kidney lysates from mice treated with or without TM (1 mg/kg) at different time points were analyzed by WB for levels of CRELD2 and β-actin.
FIG. 10E is an image of a Western blot showing the detection of urinary CRELD2 within 1 day of TM injection. Urines were collected for 24 hours after the mice were injected with vehicle or 1 mg/kg TM (IP). Crude urine samples from mice treated with vehicle (n=8) or TM (n=8) were analyzed by WB for CRELD2 excretion. The urinary CRELD2 excretion was normalized to 2 μg of urine Cr excretion.
Intraperitoneal (IP) injection of TM in mice is a well characterized AKI model caused by renal proximal tubular ER stress (29). […] In comparison, glomeruli and other organs are spared (21, 29).
TM was dissolved in DMSO at 2 mg/ml, and injected intraperitoneally at 1 mg/kg into 6-10 weeks old C57BL/6J mice. Urine was collected from metabolic cages in which the mice were immediately placed after the injection. 1 day or 5 days after the injection, sera were obtained, and kidneys were harvested. One kidney was snap frozen in dry ice and stored at −70 C until further processing for protein and RNA. The other kidney was fixed in 4% paraformaldehyde (PFA) (pH 7.4) at 4 C and then transferred to 15% and 30% sucrose/PBS for OCT-embedded cryosections.
For dual staining of CRELD2 with biotinylated LTL in mouse kidneys, […]. After dewaxing, PFA-fixed, sucrose-cryoprotected kidney sections from control or TM-treated mice were subjected to antigen retrieval by immersion in 10 mM citric acid buffer (pH 6.0) for 5 minutes at 95 C. […] Nonspecific avidin binding was blocked by an avidin/biotin blocking kit (Vector laboratories) before incubating kidney sections with 1% BSA for 30 minutes at room temperature. The slides were stained with a goat anti-mouse CRELD2 antibody (R&D) together with biotinylated LTL overnight at 4° C., followed by an Alexa 488-conjugated anti-goat secondary antibody and Alexa 594-conjugated streptavidin as well as Hoechst 33342. For CRELD2 staining in sham-operated and post-ischemic kidneys, the fluorescent signal was further amplified using a Fluorescein tyramide amplification kit (Perkin-Elmer, Waltham, Mass.) according to the manufacturer's instructions. Slides were analyzed under a fluorescence microscope (Nikon).
Isolated mouse glomeruli and cultured mouse primary podocytes were lysed by RIPA buffer (Sigma) containing protease inhibitor cocktail (Roche, Indianapolis, Ind.). TM untreated- and treated-kidneys, as well as sham-operated and I/R-injured kidneys, were extracted using the same lysis buffer with the protease inhibitors and homogenized by sonication. The protein concentrations of cell, glomerular and kidney lysates were determined by Bio-Rad protein assay (Hercules, Calif.) using BSA as a standard. Denatured proteins were separated on SDS polyacrylamide gel electrophoresis (SDS-PAGE) and then transferred to PVDF membranes. Blots were blocked with 5% non-fat milk for 1 hour and then incubated overnight with primary antibodies. The membranes were washed with Tris-buffered saline/TWEEN® (polysorbate) buffer and incubated with the appropriate HRP-conjugated secondary antibodies. […]

| Molecule | CRELD2 immunofluorescence in podocytes (mouse primary podocytes) | CRELD2 expression in cell lysates (WB) (mouse primary podocytes) | ER stress response genes including BiP, CHOP, MANF and EDEM (C57BL/6J mice [1]; day 1 after TM injection) | renal function and histology (C57BL/6J mice [1]; day 1 after TM injection) | renal histology after IP injection of TM (C57BL/6J mice [1]; peaks between 4 and 5 days after injection, glomeruli and other organs spared) | CRELD2 in ER-stressed proximal tubular cells (marked by LTL) (C57BL/6J mice [2]; 1 day and 5 days post TM injection (FIG. 4)) | BiP in ER stressed-tubular cells (immunofluorescence) (C57BL/6J mice [2]) | BiP in ER stressed-tubular cells (immunofluorescence) (C57BL/6J mice [2]; listed as tunicamycin) | CRELD2 immunostaining in proximal tubules (co-IF with LTL) (C57BL/6J mice [2]; 5 days post-injection, TM 1 mg/kg IP) | CRELD2 induction in glomeruli (IF) (C57BL/6J mice [2]; TM-injected kidneys, 1 mg/kg IP) | BiP in kidney lysates (immunodetection) (C57BL/6J mice [2]; TM-injected mice (FIG. 18)) | CRELD2 in kidney lysates (immunodetection) (C57BL/6J mice [2]; TM-injected mice, time not stated (FIG. 3)) | CRELD2 transcript levels in whole-kidney lysates (RT-PCR) (C57BL/6J mice [2]; day 1 after TM 1 mg/kg IP vs DMSO vehicle or day 5) | CRELD2 immunostaining in proximal tubules (co-IF with LTL) (C57BL/6J mice [2]; day 1 following TM 1 mg/kg IP vs controls) | CRELD2 protein expression in kidneys (WB) (C57BL/6J mice [2]; day 1 vs controls or day 5 post-injection, TM 1 mg/kg IP) | urinary CRELD2 excretion (WB) (C57BL/6J mice [2]) | urinary CRELD2 excretion (WB) (C57BL/6J mice [2]; listed as tunicamycin) | BiP in urine (immunodetection) (C57BL/6J mice [2]) | BiP in urine (immunodetection) (C57BL/6J mice [2]; listed as tunicamycin) | form of CRELD2 expressed (WB) (mouse primary podocytes; TM 2 μg/ml, 24 h) |
| --- | --- | --- | --- | --- | --- | --- | --- | --- | --- | --- | --- | --- | --- | --- | --- | --- | --- | --- | --- | --- |
| C/C=C(/C)C(=O)O[C@H]1C(C)=C2[C@H]([C@@H]1OC(=O)CCCCCCC)[C@@](C)(OC(C)=O)C[C@H](OC(=O)CCC)[C@@]1(O)[C@H]2OC(=O)[C@@]1(C)O [TG, thapsigargin] | upregulated | induced expression of CRELD2 | – | – | – | – | – | – | – | – | – | – | – | – | – | – | – | – | – | – |
| tunicamycin [TM] | upregulated | induced expression of CRELD2 | upregulated | normal renal function and the absence of conspicuous histologic changes | extensive tubular dilation, epithelial flattening, tubular basement membrane denudation and loss of brush borders in proximal tubules | upregulated | upregulated | upregulation | subsided | did not exhibit CRELD2 induction | induced | induced | significantly increased | substantially upregulated | higher | can be detected; also recorded: dramatically increased | immunodetection of CRELD2 in the urine | detected | immunodetection of BiP in urine | underglycosylated form of CRELD2 |
